Among the data in patent US20210261621A1, “Preparation of Dilipid Polymixins and Use Thereof as Antimicrobial Adjuvants” (priority 2018, published 2021) are MICDrug and MICDrug in combo values, retold here.

The test system of the assay is P. aeruginosa PAO1. Also on record: MICDrug / MICDrug in combo / MIC of adjuvant in combo: unit not given beside the values. As to conditions: for MICDrug: antibiotic alone. The procedure:
The potential of the dilipid polymyxins to serve as an adjuvant in combination with other antibiotics was evaluated against P. aeruginosa PAO1 strain (Tables 4 and 7-12). […] Checkerboard assays were performed with the dilipid polymyxins in combination with twenty-one clinically-used antibiotics. The panel included representatives from the β-lactam, carbapenem, tetracycline, aminoglycoside and fluoroquinolone antibiotic families. Other agents that are used to treat Gram-negative bacterial infection such as fosfomycin, trimethoprim and chloramphenicol were also included. […] Fractional inhibitory concentration (FIC) index was calculated for each combination to measure potential synergism between the two agents. FIC was obtained by dividing the MIC of antibiotic/adjuvant in combination by the MIC of antibiotic/adjuvant alone, while FIC index was calculated by the summation of FIC indices for the antibiotic and adjuvant. An FIC index of ≤0.5, 0.5<x≤4, or >4 denotes for synergistic, additive or antagonistic interaction, respectively. Initially, we assessed the adjuvant properties of PMBN against the panel of 21 antibiotics.
The assay was performed on 96-well plates as previously described. Briefly, the antibiotic at study was 2-fold serially diluted along the x-axis, while the adjuvant was 2-fold serially diluted along the y-axis to create a matrix in which each well consists of a combination of both at different concentrations. Overnight grown bacterial cultures were diluted in saline to 0.5 McFarland turbidity, followed by 1:50 dilution in MHB and inoculation on each well to a final concentration of approximately 5×10^5 colony forming units/mL. Wells containing only MHB with or without bacterial cells were used as positive or negative control, respectively. […] The fractional inhibitory concentration (FIC) of the antibiotic was calculated via dividing the MIC of antibiotic in the presence of adjuvant by the MIC of antibiotic alone. Similarly, the FIC of adjuvant was calculated via dividing the MIC of adjuvant in the presence of antibiotic by the MIC of adjuvant alone. The FIC index was obtained by the summation of both FIC values. The FIC index was then interpreted as synergistic, additive, or antagonistic for values of ≤0.5, 0.5<x<4, or ≥4, respectively.

Setting [1] is: antibiotic in combination with 1.
The mark [2] stands for this setting: antibiotic in combination with 2.
Setting [3] is: antibiotic in combination with 3.
Where [4] appears, read: antibiotic in combination with 4.
[5] abbreviates: antibiotic in combination with 5.
The mark [6] stands for this setting: antibiotic in combination with PMBN.

Where two headings read alike, the source gives them in different places.

Turning to `COc1c(N2C[C@@H]3CCCN[C@@H]3C2)c(F)cc2c(=O)c(C(=O)O)cn(C3CC3)c12` [Moxifloxacin, reference compound], the MICDrug was determined as 1. Moreover, the MICDrug in combo entry under setting [1] is “(0.125)”. Besides, the MICDrug in combo entry under setting [2] is reported as “(1)”. Further, the MICDrug in combo result under setting [3] is “(0.5)”. The MICDrug in combo result under setting [4] is reported as “(1)”. Further, the MICDrug in combo result under setting [5] is reported as “(0.25)”. Moreover, the MICDrug in combo result under setting [6] was “(0.125)”.
In the case of `CO[C@@H]1[C@@H](OC(N)=O)[C@@H](O)[C@H](Oc2ccc3c(O)c(NC(=O)c4ccc(O)c(CC=C(C)C)c4)c(=O)oc3c2C)OC1(C)C` [Novobiocin, reference compound], the MICDrug came out at 512. Besides, under setting [1], the MICDrug in combo entry is given as “(16)”. Besides, the MICDrug in combo result under setting [2] is on record as “(8)”. Besides, the MICDrug in combo result under setting [3] is listed as “(0.5)”. The MICDrug in combo result under setting [4] is reported as “(2)”. In addition, the MICDrug in combo result under setting [5] is “(128)”. Besides, the MICDrug in combo entry under setting [6] is “(4)”.
Consider `CCN1CCN(C(=O)N[C@@H](C(=O)N[C@@H]2C(=O)N3[C@@H]2SC(C)(C)[C@@H]3C(=O)O)c2ccccc2)C(=O)C1=O` [Piperacillin, reference compound], for which the MICDrug was 4. In addition, the MICDrug in combo result under setting [1] is “(2)”. The MICDrug in combo result under setting [2] is on record as “(0.0625)”. The MICDrug in combo entry under setting [3] is “(2)”. Besides, the MICDrug in combo entry under setting [4] is reported as “(4)”. For the same molecule, under setting [5], the MICDrug in combo result is “(2)”. For the same molecule, the MICDrug in combo result under setting [6] is recorded as “(1)”.
Turning to `C=C[C@]1(C)C[C@@H](OC(=O)CO)[C@]2(C)[C@H](C)CC[C@]3(CCC(=O)[C@H]32)[C@@H](C)[C@@H]1O` [Pleuromutilin, reference compound], the MICDrug came out at 512. For the same molecule, the MICDrug in combo result under setting [1] is given as “(4)”. In addition, the MICDrug in combo entry under setting [2] is “(4)”. Under setting [3], the MICDrug in combo result was “(8)”. Besides, under setting [4], the MICDrug in combo entry is recorded as “(4)”. Under setting [5], the MICDrug in combo entry is “(2)”. Also, the MICDrug in combo result under setting [6] is reported as “(16)”.
On to `CO[C@H]1/C=C/O[C@@]2(C)Oc3c(C)c(O)c4c(O)c(c(/C=N/N5CCN(C)CC5)c(O)c4c3C2=O)NC(=O)/C(C)=C\C=C\[C@H](C)[C@H](O)[C@@H](C)[C@@H](O)[C@@H](C)[C@H](OC(C)=O)[C@@H]1C` [Rifampicin, reference compound], for which the MICDrug turned out to be 16. In addition, the MICDrug in combo result under setting [2] is “(8)”. Also, the MICDrug in combo result under setting [3] is “(8)”. The MICDrug in combo entry under setting [4] is “(0.25)”. Besides, the MICDrug in combo entry under setting [5] is “(1)”. Under setting [6], the MICDrug in combo result is recorded as “(0.0625)”.
Turning to `[H]/N=C(/N)N[C@H]1[C@H](O)[C@@H](O)[C@H](O[C@@H]2O[C@@H](C)[C@](O)(C=O)[C@H]2O[C@@H]2O[C@@H](CO)[C@H](O)[C@@H](O)[C@@H]2NC)[C@@H](N/C(N)=N\[H])[C@@H]1O` [Streptomycin, reference compound], the MICDrug is 16. Further, the MICDrug in combo result under setting [1] is listed as “(8)”. Moreover, the MICDrug in combo result under setting [2] is recorded as “(4)”. In addition, the MICDrug in combo entry under setting [3] was “(16)”. In addition, under setting [4], the MICDrug in combo entry is “(16)”. The MICDrug in combo entry under setting [5] is “(8)”. Besides, the MICDrug in combo result under setting [6] was “(8)”.
As to `NC[C@H]1O[C@H](O[C@H]2[C@H](O)[C@@H](O[C@H]3O[C@H](CO)[C@@H](O)[C@H](N)[C@H]3O)[C@H](N)C[C@@H]2N)[C@H](N)C[C@@H]1O` [Tobramycin, reference compound], the MICDrug is 1. In addition, the MICDrug in combo entry under setting [1] is “(1)”. In addition, under setting [2], the MICDrug in combo result is “(1)”. For the same molecule, the MICDrug in combo entry under setting [3] is on record as “(1)”. In addition, the MICDrug in combo result under setting [4] was “(1)”. The MICDrug in combo entry under setting [5] is given as “(1)”. Further, the MICDrug in combo result under setting [6] is on record as “(1)”.
In the case of `COc1cc(Cc2cnc(N)nc2N)cc(OC)c1OC` [Trimethoprim, reference compound], the MICDrug is 128. For the same molecule, the MICDrug in combo entry under setting [1] was “(16)”. In addition, under setting [2], the MICDrug in combo result is “(8)”. In addition, under setting [3], the MICDrug in combo entry is listed as “(16)”. The MICDrug in combo result under setting [4] is reported as “(0.25)”. Also, under setting [5], the MICDrug in combo result was “(16)”. Besides, the MICDrug in combo result under setting [6] was “(8)”.
